For assay [1], the species on record is Cavia porcellus. In words: Agonist activity at beta-adrenoceptor in guinea pig trachea assessed as tracheal relaxation. It counts as tissue-based.
The species entered for assay [2] is Cavia porcellus. Description: Intrinsic activity at beta-adrenoceptor in guinea pig atrium assessed as positive chronotropic effect at 10^-10 to 10^-4 M relative to control. It counts as tissue-based. The conditions noted are these: Cardiac atrium.
Assay [3] has as its target T1, Adrenergic receptor beta (Rattus norvegicus) (UniProt P18090+P10608+P26255). Particulars: Sprague-Dawley, Plasma.
Description: Agonist activity at beta-adrenoceptor in Sprague-Dawley rat adipocytes assessed as adenylate cyclase activity in plasmalemma measured as radiolabelled cAMP level after 10 mins by scintillation counting
Assay [4] is filed under the species Cavia porcellus. Description: Agonist activity at beta-adrenoceptor in guinea pig atrium assessed as positive chronotropic effect. It counts as tissue-based. The conditions noted are these: Cardiac atrium.
Assay [5] deals with T1, Adrenergic receptor beta (Rattus norvegicus). The conditions noted are these: Sprague-Dawley.
Description: Agonist activity at beta-adrenoceptor in Sprague-Dawley rat adipocytes assessed as lipolysis measured as glycerol release
For assay [6], the species on record is Cavia porcellus. Description: Intrinsic activity at beta-adrenoceptor in guinea pig trachea assessed as tracheal relaxation at 10^-10 to 10^-4 M relative to control. The assay is classed as tissue-based.
For assay [7], the target named is T1, Adrenergic receptor beta (Rattus norvegicus). Particulars: Sprague-Dawley. This is another data set of the same source.
Description: Agonist activity at beta-adrenoceptor in Sprague-Dawley rat fat cells assessed as cAMP accumulation after 10 mins

With `COc1cc(C[C@@H]2NCCc3cc(O)c(O)cc32)cc(OC)c1OC` (racemic), the pD2 is 9 in the assay filed under Cavia porcellus [1]; 8.5 in assay [3]; 9.1 in the assay filed under Cavia porcellus [4]; 7.3 in assay [5]; 7.7 in assay [7]. Further, the Intrinsic activity worked out at 0.9 in the assay listed under Cavia porcellus [2] and 0.88 in the assay filed under Cavia porcellus [6].
For the molecule `COc1cc([C@@H](O)[C@@H]2NCCc3cc(O)c(O)cc32)cc(OC)c1OC` (racemic), the pD2 in the assay listed under Cavia porcellus [1] came out at 6; in assay [3], 6.2; in the assay filed under Cavia porcellus [4], 6.1; in assay [5] it was 6.8; in assay [7], 6.4. The Intrinsic activity in the assay listed under Cavia porcellus [2] is 0.78; in the assay listed under Cavia porcellus [6], 0.76.
Take `COc1cc([C@H](O)[C@@H]2NCCc3cc(O)c(O)cc32)cc(OC)c1OC` (racemic): the pD2 in the assay filed under Cavia porcellus [1] stood at 6.8; in assay [3], 6.8; in the assay listed under Cavia porcellus [4] it was 6.5; in assay [5] it was 7; in assay [7], 6.7. Further, the results for the Intrinsic activity in the assay filed under Cavia porcellus [2] and in the assay listed under Cavia porcellus [6] were 0.8 and 0.88, respectively.

Source of the values: ChEMBL document CHEMBL3243971, “Synthesis and beta-adrenoceptor activity of the erythro and threo isomers of substituted alpha-hydroxytrimetoquinol” (J Med Chem, 1978).
